{"source": "patent US20260335398A1", "about": "“METHODS FOR TREATING PANCREATIC CANCER WITH A COMBINATION OF DES-METHYL PATEAMINE A AND A CLASS I HDAC INHIBITOR” (Baylor University, priority 2023, published 2026)", "key": {"[1]": {"tested_on": "KLM and MIA PaCa-2 cells", "experiment": "Nascent RNA synthesis by EU labeling (FIG. 9B)", "format": "cell-based", "conditions": "total 18 h, 5-EU incorporation", "description": "FIG. 9B left panel compares EU-labeled nascent RNA and (Hoechst counterstain) in KLM cells treated with combination and single agents. Scale bar: 1 μm. FIG. 9B right panels present quantification of fluorescence intensities of nascent RNA synthesis in both KLM and MIA PaCa-2 cell lines. Statistical significance was determined by one-way ANOVA using Tukey multiple comparison's test, ****p value<0.0001, **p value<0.0002, **p value<0.002.\n(§1) This apparent hypertranscription observed with the combination, was confirmed by the increase in nascent RNA output above the level of normal cells, following treatment for a total of 18 hours (i.e., 6-hour romidepsin followed by 12-hour washout with or without 2 nM DMPatA), quantified using incorporation of the modified RNA precursor 5-EU. […] Because HDAC inhibitors cause histone hyperacetylation and having observed the increase in gene expression following treatment with the combination, the impact of the combination on histone acetylation was assessed.\nTo detect changes in the global RNA transcription we used the Click-iT RNA Alexa Fluor 594 Imaging Kit (Invitrogen, #C10330). Briefly, cells were cultured in complete media and pulsed for 60 min with alkyne-modified nucleoside, 5-ethynyl uridine (EU) at a final concentration of 1 mM. […]"}, "[2]": {"tested_on": "H3K9ac", "experiment": "Immunoblot of H3K9ac protein levels (FIGS. 5A-5C, 9C)", "format": "cell-based", "conditions": "romidepsin 15 nM 6 h; with or without DMPatA 2 nM", "description": "FIGS. 5A-5C are images of immunoblots of protein levels from whole cell extracts of MIA PaCa-2 cell line following treatment with representative combinations Class 1 HDAC inhibitors and DMPatA, DMPatA alone, and HDAC inhibitor alone. FIG. 5A compares immunoblots of H3K9ac (top panel) and GAPDH (bottom panel) protein levels from whole cell extracts of MIA PaCa-2 cells following treatment with the combination of romidepsin and DMPatA and single drugs. Romidepsin treatment was for 6 hours. FIG. 5B compares immunoblots of H3K9ac protein levels from whole cell extracts of MIA PaCa-2 and KLM cells untreated or following treatment with the combination of entinostat and DMPatA and single drugs. Treatments were for various timepoints ranging from 6 to 24 hours. […]\nas §1, with “assessed. […]” for “assessed.”"}, "[3]": {"tested_on": "MIA PaCa-2 xenograft", "experiment": "MIA PaCa-2 xenograft model of PDAC, tumor growth (FIG. 2A)", "format": "in vivo, athymic nude mice", "conditions": "IP; romidepsin 0.75 mg/kg, DMPatA 0.075 mg/kg; once every four days 2 weeks, then every seven days 5-6 weeks", "description": "FIGS. 2A and 2B illustrate the results of a MIA PaCa-2 xenograft model of PDAC in male athymic nude mice. FIG. 2A compares tumor growth (mm^3) in mice treated with the indicated concentrations of combination, romidepsin and DMPatA using IP route and vehicles described in the materials and methods section below. FIG. 2B compares body weight (g) of mice treated with the combination and single agents following treatment. FIGS. 2C and 2D compare quantification of H3K9ac and c-MYC antibodies. Frozen sections from MIA PaCa-2 xenograft tumor tissues were subjected to immunohistochemical analysis using antibodies against H3K9ac, and c-MYC. Fluorescence images were captured using fluorescent microscopy and the fluorescent signal from H3K9ac and c-MYC antibodies were quantified. To quantify fluorescence intensity at least 500 cells per condition were measured for each antibody at 40× magnification. The median of the signal intensity is shown. Statistical significance was determined by one-way ANOVA using Tukey multiple comparisons test, ****p value<0.0001.\nAnimal studies were performed according to Institutional Animal Care and Use Committee (IACUC) protocol number AC-AABD2601. Following the establishment of initial dose levels for individual drugs, efficacy of the combination and single agents in a MIA PaCa-2 xenograft model was assessed at a tolerable dose and schedule. […]"}}, "data": [{"smiles": "C/C=C1\\NC(=O)[C@H]2CSSCC/C=C/[C@H](CC(=O)N[C@H](C(C)C)C(=O)N2)OC(=O)[C@H](C(C)C)NC1=O", "note": "[romidepsin]", "values": [{"measurement": "nascent RNA (mRNA) synthesis", "setting": "[1]", "result": "increase in RNA synthesis"}, {"measurement": "H3K9 acetylation", "setting": "[2]", "result": "only a small effect"}, {"measurement": "tumor volume", "setting": "[3]", "result": "regression in tumor volume"}]}]}
